14 compounds from patent US10167313B2, “Selective caspase inhibitors and uses thereof” (Genesis Technologies Limited, priority 2008, dated 2019) can be followed below.

Like-named read-outs stand apart in the source and are kept apart here.

Assay [1] deals with Hela cells. Briefly: Inhibition of proteolytic cleavage of PARP in staurosporine-treated live Hela cells. The assay is classed as cell-based. The note with it: for inhibition at 50 µM: Homo sapiens; for effectivity in inhibiting PARP cleavage (in words): relative to DEVD-fmk. How it is done: To test the efficacy of caspase-3 inhibitors at the cellular level, the ability of selected compounds to inhibit the proteolytic cleavage of PARP (poly ADP-ribose polymerase) was evaluated in live Hela cells.
Briefly, in this assay Hela cells are seeded in 96 well plates and incubated for 4 hours with staurosporine, a well characterized inducer of apoptosis, alone or together with different concentrations of compound (50, 25, 10 and 3 uM). After formaldehyde-based fixation, the cells are stained with a fluorescein-labeled anti-cleaved PARP antibody (Cell signaling, Cat#: 9547) and counterstained with Hoechst33342 (Invitrogen, Cat#: H3570) to mark all nuclei. Fluorescence images are taken on a Cellomics™ microscope system (Thermo Scientific, Pittsburgh, USA) with the Hoechst stain in the blue channel and the cleaved PARP antibody stain in the green channel. The percentage of cleaved PARP positive cells is determined by calculating the ratio between nuclei with a cleaved PARP antibody staining above a certain threshold and all (Hoechst positive) nuclei. The efficacy of caspase-3 inhibition is determined by calculating the ratio between cleaved PARP positive cells after staurosporine incubation together with compounds and staurosporine incubation without compounds.

In assay [2] the target is caspase-7 (Homo sapiens (Human), UniProt P55210). Briefly: Caspase-7 Inhibitor Drug Screening Kit, fluorometric enzymatic assay. The following applies: for selectivity of caspase-3 over caspase-7 (IC50 fold difference): based on the IC50 values.
caspase-7, sequence (P55210 24-198): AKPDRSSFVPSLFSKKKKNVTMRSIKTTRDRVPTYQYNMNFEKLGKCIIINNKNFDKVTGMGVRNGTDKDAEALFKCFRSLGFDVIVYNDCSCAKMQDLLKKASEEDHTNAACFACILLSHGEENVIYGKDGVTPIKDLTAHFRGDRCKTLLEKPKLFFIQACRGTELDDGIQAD
caspase-7, sequence (P55210 207-303): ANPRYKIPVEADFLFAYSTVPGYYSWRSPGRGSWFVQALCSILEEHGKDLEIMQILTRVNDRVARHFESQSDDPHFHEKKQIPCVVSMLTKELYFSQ
Method: (§1) The level of inhibition of caspase-1, -3, -5, -7, -9 activity was determined by comparison of the relative fluorescence intensity in samples with or without the compound.
Assay [3] deals with caspase-5 (Homo sapiens (Human), UniProt P51878). Briefly: Caspase-5 Inhibitor Drug Screening Kit, fluorometric enzymatic assay. The following applies: for IC50: read-out: Caspase enzymatic activity, IC50 (uM) Caspase 5, 30-minute incubation at 37° C., AFC liberation; for inhibitory activity for caspase-5 (in words): tested dose-range 1-3333 nM.
caspase-5, sequence (P51878 137-327): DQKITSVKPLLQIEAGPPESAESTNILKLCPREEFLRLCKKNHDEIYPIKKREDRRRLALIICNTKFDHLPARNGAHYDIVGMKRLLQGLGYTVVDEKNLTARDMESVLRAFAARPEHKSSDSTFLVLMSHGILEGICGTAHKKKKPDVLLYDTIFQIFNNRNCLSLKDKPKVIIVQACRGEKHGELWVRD
caspase-5, sequence (P51878 347-434): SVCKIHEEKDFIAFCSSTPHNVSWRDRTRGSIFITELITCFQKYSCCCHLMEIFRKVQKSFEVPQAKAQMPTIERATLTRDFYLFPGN
Method: as §1
Assay [4] deals with Caspase 3/7 (Glo3/7). Briefly: Glo3/7 assay.
Assay [5] concerns the target caspase-9 (Homo sapiens (Human), UniProt P55211). Briefly: Caspase-9 Inhibitor Drug Screening Kit, fluorometric enzymatic assay. The note with it: for inhibitory activity for caspase-9 (in words): tested dose-range 1-3333 nM.
Method: as §1
For assay [6], the target named is caspase-1 (Homo sapiens (Human), UniProt P29466). Briefly: Caspase-1 Inhibitor Drug Screening Kit, fluorometric enzymatic assay. The following applies: for IC50: read-out: Caspase enzymatic activity, IC50 (uM) Caspase 1, 30-minute incubation at 37° C., AFC liberation; for inhibitory activity for caspase-1 (in words): tested dose-range 1-3333 nM.
caspase-1, sequence (P29466 120-297): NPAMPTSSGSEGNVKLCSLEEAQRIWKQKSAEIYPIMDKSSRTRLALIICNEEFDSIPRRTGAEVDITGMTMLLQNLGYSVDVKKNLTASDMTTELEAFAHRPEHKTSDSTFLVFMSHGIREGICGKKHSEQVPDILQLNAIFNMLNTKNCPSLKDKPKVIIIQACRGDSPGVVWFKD
caspase-1, sequence (P29466 317-404): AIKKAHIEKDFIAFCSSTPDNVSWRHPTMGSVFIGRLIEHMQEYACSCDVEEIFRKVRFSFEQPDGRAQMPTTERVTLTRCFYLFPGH
Method: as §1
Assay [7] addresses caspase-3 (Homo sapiens (Human), UniProt P42574). Briefly: Caspase-3 Inhibitor Drug Screening Kit, fluorometric enzymatic assay. The assay is classed as biochemical. The note with it: for IC50: 30-minute incubation at 37° C., AFC liberation.
Method: as §1
The mark [8] stands for this setting: 50 uM, relative to DEVDFMK, read-out: % of inhibition with compound relative to DEVDFMK.
[9] abbreviates: read-out: % inhibition of PARP cleavage at 50 uM compound, staurosporine 4 hours, 50 uM compound.
The mark [10] stands for this setting: read-out: Caspase enzymatic activity, IC50 (uM) Caspase 9, 30-minute incubation at 37° C., AFC liberation.
Setting [11] is: read-out: Caspase enzymatic activity, IC50 (uM) Caspase 7, 30-minute incubation at 37° C., AFC liberation.

caspase-3, sequence (P42574 29-175): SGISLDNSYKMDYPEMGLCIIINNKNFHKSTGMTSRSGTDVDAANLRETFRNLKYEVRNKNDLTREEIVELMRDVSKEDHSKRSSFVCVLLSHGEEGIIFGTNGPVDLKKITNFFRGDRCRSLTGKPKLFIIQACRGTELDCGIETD
caspase-3, sequence (P42574 176-277): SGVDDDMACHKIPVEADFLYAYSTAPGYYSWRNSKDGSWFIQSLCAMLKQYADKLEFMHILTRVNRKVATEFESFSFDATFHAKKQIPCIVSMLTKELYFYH
caspase-9, sequence (P55211 1-315): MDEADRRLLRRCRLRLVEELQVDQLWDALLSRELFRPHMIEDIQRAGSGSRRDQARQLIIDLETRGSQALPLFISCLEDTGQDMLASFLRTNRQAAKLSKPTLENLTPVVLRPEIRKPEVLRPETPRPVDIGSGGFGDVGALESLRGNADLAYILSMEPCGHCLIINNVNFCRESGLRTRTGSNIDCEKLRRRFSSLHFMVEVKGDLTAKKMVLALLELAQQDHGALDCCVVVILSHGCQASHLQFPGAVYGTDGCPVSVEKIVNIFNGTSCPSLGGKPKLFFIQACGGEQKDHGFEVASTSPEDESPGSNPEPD
caspase-9, sequence (P55211 331-416): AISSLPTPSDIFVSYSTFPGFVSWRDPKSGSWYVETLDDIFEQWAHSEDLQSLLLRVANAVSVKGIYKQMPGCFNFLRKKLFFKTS

Usually inhibition stands for how much of the control response was suppressed. What is called IC50 is the point on the concentration scale where inhibition reaches its midpoint. `CC(C)[C@H](NC(=O)[C@H](Cc1ccc2ccccc2n1)NC(=O)[C@H](CC(=O)O)NC(=O)OCc1ccccc1)C(=O)N[C@H](/C=C/S(=O)(=O)c1ccccc1)CC(=O)O` [Compound 63, Z-Asp-Ala(2′-quinolyl)-Val-Aspphenyl vinyl sulfone]: the results for the inhibition at 50 µM in assay [1] (setting [8]) and in assay [1] (setting [9]) were 15% and 10%, respectively. Besides, the “selectivity of caspase-3 over caspase-7 (IC50 fold difference)” value in assay [2] was approximately 50 fold. Also, the IC50 was more than 3.33 µM in assay [3], 0.9 µM in assay [4], more than 3.33 µM in assay [5] (setting [10]) and more than 3.33 µM in assay [6]. The “inhibitory activity for caspase-5 (in words)” value in assay [3] is on record as “No significant inhibitory activity”. Besides, the “inhibitory activity for caspase-9 (in words)” value in assay [5] is “No significant inhibitory activity”. Besides, the “inhibitory activity for caspase-1 (in words)” value in assay [6] is “No significant inhibitory activity”.
On to `CC(C)[C@H](NC(=O)[C@@H](Cc1ccc2ccccc2n1)NC(=O)[C@H](CC(=O)O)NC(=O)OCc1ccccc1)C(=O)N[C@H](/C=C/S(C)(=O)=O)CC(=O)O` (stereo in doubt) [Compound 71, Z-Asp-(D,L Ala(2′-quinolyl))-Val- Aspmethyl vinylsulfone], for which the half-inhibitory concentration (IC50) in assay [2] (setting [11]) is 8.9 µM; in assay [3], more than 10 µM; in assay [5] (setting [10]) it was more than 10 µM; in assay [6] it was more than 10 µM.
For the compound `CC(C)[C@H](NC(=O)[C@@H](Cc1ccc2ccccc2n1)NC(=O)[C@H](CC(=O)O)NC(=O)OCc1ccccc1)C(=O)N[C@H](/C=C/S(=O)(=O)c1ccccc1)CC(=O)O` (stereo in doubt) [Compound 70, Z-Asp-(D,L Ala(2′-quinolyl))-Val- Aspphenyl vinylsulfone], the IC50 in assay [2] (setting [11]) is more than 10 µM; in assay [3] it was more than 10 µM; in assay [5] (setting [10]) it was more than 10 µM; in assay [7] it was 0.3 µM.
Take `CC(C)[C@H](NC(=O)[C@@H](NC(=O)[C@H](CC(=O)O)NC(=O)OCc1ccccc1)C1Cc2ccccc2C1)C(=O)N[C@H](/C=C/S(C)(=O)=O)CC(=O)O` [Compound 57, Z-Asp-Indanylglycine-Val-Aspmethyl vinyl sulfone]: the values for the inhibition at 50 µM in assay [1] (setting [8]) and in assay [1] (setting [9]) were 70% and 65%, respectively. Further, the results for the IC50 in assay [3], in assay [4] and in assay [5] (setting [10]) were more than 3.33 µM, 0.1 µM and more than 3.33 µM, respectively. Further, the “fold less efficiency against caspase-1 than against group III caspases” value in assay [6] was “about 29 fold”.
`COC(=O)C[C@@H](/C=C/S(C)(=O)=O)NC(=O)[C@@H](NC(=O)[C@@H](NC(=O)[C@H](CC(=O)OC)NC(=O)OCc1ccccc1)C1Cc2ccccc2C1)C(C)C` [Compound 51, Z-Asp(β-methyl)-Indanylglycine-Val- Asp(β-methyl)methyl vinyl sulfone]: the inhibition at 50 µM was determined as 80% in assay [1] (setting [8]) and 65% in assay [1] (setting [9]). Also, the half-inhibitory concentration (IC50) in assay [2] (setting [11]), in assay [3], in assay [5] (setting [10]) and in assay [6] was more than 3 µM throughout.
Take `CC(C)[C@H](NC(=O)[C@H](Cc1ccc2ccccc2n1)NC(=O)[C@H](CC(=O)O)NC(=O)OCc1ccccc1)C(=O)N[C@H](/C=C(\Cl)S(C)(=O)=O)CC(=O)O` [Compound 48, Z-Asp-Ala(2′-quinolyl)-Val-Asp- αchlorovinyl methylsulfone]: the inhibition at 50 µM in assay [1] (setting [8]) was 65%; in assay [1] (setting [9]), 45%. The “effectivity in inhibiting PARP cleavage (in words)” value in assay [1] is “showing effectivity”. Further, the IC50 in assay [3] was more than 3.33 µM; in assay [4], 0.1 µM; in assay [6], more than 3.33 µM.
As for `CC(C)[C@H](NC(=O)[C@H](Cc1ccc2ccccc2n1)NC(=O)[C@H](CC(=O)O)NC(=O)OCc1ccccc1)C(=O)N[C@H](/C=C/S(C)(=O)=O)CC(=O)O` [Compound 55, Z-Asp-Ala(2′-quinolyl)-Val-Aspmethyl vinyl sulfone], the inhibition at 50 µM in assay [1] (setting [8]) was determined as 60%; in assay [1] (setting [9]), 40%. Further, the “effectivity in inhibiting PARP cleavage (in words)” value in assay [1] is listed as “showing effectivity”. Further, the IC50 in assay [3] was more than 10 µM; in assay [4] it was 0.1 µM; in assay [5] (setting [10]) it was more than 3.33 µM; in assay [6], more than 10 µM. In addition, the results for the inhibition at 10 µM in assay [3] (read-out: Inhibition of Caspase-5), in assay [5] (read-out: Inhibition of Caspase-9) and in assay [6] (read-out: Inhibition of Caspase-1) were 21%, 57% and 25%, respectively. For the same compound, in assay [3], the “inhibitory activity for caspase-5 (in words)” value is “No significant inhibitory activity”. Moreover, the “inhibitory activity for caspase-9 (in words)” value in assay [5] is listed as “No significant inhibitory activity”. Further, the “inhibitory activity for caspase-1 (in words)” value in assay [6] is “No significant inhibitory activity”.
On to `CC(C)[C@H](NC(=O)[C@H](CCC(=O)O)NC(=O)[C@H](Cc1ccc(O)cc1)NC(=O)OCc1ccccc1)C(=O)N[C@H](/C=C/S(C)(=O)=O)CC(=O)O` [Compound 82, Z-Tyr-Glu-Val-Aspmethyl vinyl sulfone], for which the IC50 was more than 5 µM in assay [2] (setting [11]) and more than 3 µM in assay [3].
As for `CC(C)[C@H](NC(=O)OCc1ccccc1)C(=O)N[C@H](/C=C/S(C)(=O)=O)CC(=O)O` [Compound 61, Z-Val-Aspmethyl vinyl sulfone], the inhibition at 50 µM in assay [1] (setting [8]) and in assay [1] (setting [9]) was 5% in each case. In addition, the IC50 in assay [2] (setting [11]), in assay [3], in assay [5] (setting [10]), in assay [7] and in assay [6] was more than 3.33 µM in each case. Further, in assay [7], the “activity against caspase-3 (in words)” value is on record as “abolished completely the activity”.
As to `CC(C)[C@H](NC(=O)[C@@H](NC(=O)[C@H](CC(=O)O)NC(=O)OCc1ccccc1)c1ccccc1)C(=O)N[C@H](/C=C/S(C)(=O)=O)CC(=O)O` [Compound 53, Z-Asp-Phg-Val-Aspmethyl vinyl sulfone], the “reduction of the percentage of PARP positive cells after staurosporine treatment” value in assay [1] was “more than 50%”. Also, the inhibition at 50 µM in assay [1] (setting [8]) stood at 80%; in assay [1] (setting [9]), 55%. Further, in assay [1], the “effectivity in inhibiting PARP cleavage (in words)” value is recorded as “highly effective relative to DEVD-fmk”. In addition, the “selectivity of caspase-3 over caspase-7 (IC50 fold difference)” value in assay [2] was “about 12 fold”. Moreover, the IC50 is more than 10 µM in assay [3], 0.1 µM in assay [4] and more than 10 µM in assay [5] (setting [10]).
`CC(C)[C@H](NC(=O)[C@H](Cc1ccc(O)cc1)NC(=O)[C@H](CC(=O)O)NC(=O)OCc1ccccc1)C(=O)N[C@H](/C=C/S(C)(=O)=O)CC(=O)O` [Compound 76, Z-Asp-Tyr-Val-Aspmethyl vinyl sulfone]: the “reduction of the percentage of PARP positive cells after staurosporine treatment” value in assay [1] is “more than 50%”. For the same compound, the inhibition at 50 µM in assay [1] (setting [8]) came out at 60%; in assay [1] (setting [9]), 55%. For the same compound, the IC50 is more than 3.33 µM in assay [3], 0.04 µM in assay [4], more than 3.33 µM in assay [5] (setting [10]) and more than 3.33 µM in assay [6].
As for `CC(C)[C@H](NC(=O)[C@H](CCC(=O)O)NC(=O)[C@H](CC(=O)O)NC(=O)OCc1ccccc1)C(=O)N[C@H](/C=C/S(C)(=O)=O)CC(=O)O` [Compound 59, Z-Asp-Glu-Val-Aspmethyl vinyl sulfone], the inhibition at 50 µM came to 70% in assay [1] (setting [8]) and 45% in assay [1] (setting [9]). In addition, the “effectivity in inhibiting PARP cleavage (in words)” value in assay [1] is “showing effectivity”. The IC50 in assay [2] is 0.042 µM; in assay [3] it was more than 3.33 µM; in assay [5], 0.509 µM.
Take `CC(C)[C@H](NC(=O)[C@H](Cc1ccc(O)cc1)NC(=O)OCc1ccccc1)C(=O)N[C@@H](C)C(=O)N[C@H](/C=C/S(=O)(=O)c1ccccc1)CC(=O)O` [Compound 96, Z-Tyr-Val-Ala-Asp phenyl vinyl sulfone]: the IC50 was more than 10 µM in assay [2] (setting [11]), more than 3.33 µM in assay [3], more than 10 µM in assay [5] (setting [10]) and more than 10 µM in assay [7].
As for `CC(C)[C@H](NC(=O)[C@H](Cc1ccc2ccccc2n1)NC(=O)[C@H](CC(=O)O)NC(=O)OCc1ccccc1)C(=O)N[C@H](/C=C/S(=O)(=O)Oc1ccccc1)CC(=O)O` [Compound 65, Z-Asp-Ala(2′-quinolyl)-Val-Aspphenoxy vinyl sulfone], the inhibition at 50 µM is 40% in assay [1] (setting [8]) and 30% in assay [1] (setting [9]). The half-maximal inhibitory concentration (IC50) in assay [3] is more than 3.33 µM; in assay [4], 0.2 µM.
